Assay results taken from ChEMBL document CHEMBL5053549, “Discovery of Potent and Novel Dual PARP/BRD4 Inhibitors for Efficient Treatment of Pancreatic Cancer” (J Med Chem, 2021).
The source made the active and inactive calls. The calls are words filed in the database; no cut-off is given here.

Assays:
Mus musculus [1] = experiment: Inhibition of homologous recombinant repair in human SW1990 cells xenografted in BALB/c mouse assessed as increase in gammaH2AX expression at 45 mg/kg, ip after 4 days by immunohistochemical analysis; assay type: functional, organism-based; conditions: time 4.0 day
[2] = target: Bromodomain-containing protein 2 (Homo sapiens, UniProt P25440); experiment: Inhibition of recombinant BRD2 BD1 (unknown origin) incubated for 120 mins by TR-FRET assay
Sequence of Bromodomain-containing protein 2 (P25440 whole entry): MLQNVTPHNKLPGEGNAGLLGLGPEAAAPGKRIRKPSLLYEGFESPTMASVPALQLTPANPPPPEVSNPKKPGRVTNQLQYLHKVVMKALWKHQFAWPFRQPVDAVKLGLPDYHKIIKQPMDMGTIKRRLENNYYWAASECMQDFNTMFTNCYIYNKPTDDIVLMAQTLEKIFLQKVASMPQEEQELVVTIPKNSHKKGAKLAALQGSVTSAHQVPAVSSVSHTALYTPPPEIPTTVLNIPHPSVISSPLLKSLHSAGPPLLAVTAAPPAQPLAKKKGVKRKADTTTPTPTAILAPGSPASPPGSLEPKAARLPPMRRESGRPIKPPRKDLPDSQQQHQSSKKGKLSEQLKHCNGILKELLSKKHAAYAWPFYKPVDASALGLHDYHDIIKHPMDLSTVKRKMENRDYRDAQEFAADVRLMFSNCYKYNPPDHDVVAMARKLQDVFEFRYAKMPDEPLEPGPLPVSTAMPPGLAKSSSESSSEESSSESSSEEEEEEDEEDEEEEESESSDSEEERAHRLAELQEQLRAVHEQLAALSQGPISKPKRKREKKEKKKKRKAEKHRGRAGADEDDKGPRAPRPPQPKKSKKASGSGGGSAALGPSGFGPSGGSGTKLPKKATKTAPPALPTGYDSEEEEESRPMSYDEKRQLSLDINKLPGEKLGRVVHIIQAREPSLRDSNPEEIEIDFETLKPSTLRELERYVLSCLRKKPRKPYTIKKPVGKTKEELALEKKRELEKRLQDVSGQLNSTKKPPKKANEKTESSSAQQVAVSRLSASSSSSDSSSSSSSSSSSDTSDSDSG

SW1990 [3] = experiment: Inhibition of colony formation in human SW1990 cells at 1 uM after 14 days by crystal violet staining based microscopic analysis; assay type: functional, cell-based; conditions: time 14.0 day
SW1990 [4] = experiment: Antitumor activity against human SW1990 cells xenografted in BALB/c mouse assessed as inhibition of Ki67 expression at 45 mg/kg, ip administered for 28 consecutive days by immunohistochemical analysis; assay type: functional, organism-based; conditions: time 28.0 day
Mus musculus [5] = experiment: In vivo inhibition of PARP1 expression in human […] cells xenografted in BALB/c mouse at 45 mg/kg, ip administered for 28 consecutive days by immunohistochemical analysis; assay type: functional, organism-based; conditions: time 28.0 day
Mus musculus [6] = experiment: In vivo inhibition of BRD4 expression in human […] cells xenografted in BALB/c mouse at 45 mg/kg, ip administered for 28 consecutive days by Western blot analysis; assay type: functional, organism-based; conditions: time 28.0 day
SW1990 [7] = experiment: Induction of apoptosis in human SW1990 cells assessed as late apoptotic cells at 1 uM after 4 days by Annexin V-FITC and propidium iodide staining based flow cytometry (reference value: 6.22%); assay type: functional; conditions: time 4 day
SW1990 [8] = experiment: Induction of apoptosis in human SW1990 cells assessed as early apoptotic cells at 2 uM after 4 days by Annexin V-FITC and propidium iodide staining based flow cytometry (reference value: […]%); assay type: functional; conditions: time 4 day
SW1990 [9] = experiment: Induction of apoptosis in human SW1990 cells assessed as late apoptotic cells at 2 uM after 4 days by Annexin V-FITC and propidium iodide staining based flow cytometry (reference value: 6.22%); assay type: functional; conditions: time 4 day
Mus musculus [10] = experiment: Effect on cell cycle progression in human SW1990 cells xenografted in BALB/c mouse assessed as reduction in PLK1 expression at 45 mg/kg, ip after 4 days by Q-PCR analysis; assay type: functional, organism-based; conditions: time 4.0 day
SW1990 [11] = experiment: Effect on cell cycle progression in human SW1990 cells assessed as reduction in E2F2 expression at 1 to 2 uM after 4 days by Q-PCR analysis; assay type: functional, cell-based; conditions: dose 1-2 µM, time 4.0 day
Mus musculus [12] = experiment: Effect on cell cycle progression in human SW1990 cells xenografted in BALB/c mouse assessed as reduction in E2F2 expression at 45 mg/kg, ip after 4 days by Western blot analysis; assay type: functional, organism-based; conditions: time 4.0 day
SW1990 [13] = experiment: Induction of DNA damage in human SW1990 cells assessed as tail DNA at 1 to 4 uM incubated for 4 days in presence of 3 uM Olaparib by comet assay; assay type: functional, cell-based; conditions: dose 1-4 µM, time 4.0 day
SW1990 [14] = experiment: Induction of DNA damage in human SW1990 cells assessed as increase in gammaH2AX at 1 to 2 uM incubated for 4 days by immunofluorescence assay; assay type: functional, cell-based; conditions: dose 1-2 µM, time 4.0 day
SW1990 [15] = experiment: Inhibition of homologous recombinant repair in human SW1990 cells assessed as reduction in FOXM1 expression at 1 to 2 uM after 4 days by Q-PCR analysis; assay type: functional, cell-based; conditions: dose 1-2 µM, time 4.0 day
SW1990 [16] = experiment: Inhibition of homologous recombinant repair in human SW1990 cells assessed as reduction in FOXM1 expression at 1 to 2 uM after 4 days by Western blot analysis; assay type: functional, cell-based; conditions: dose 1-2 µM, time 4.0 day
SW1990 [17] = experiment: Inhibition of homologous recombinant repair in human SW1990 cells assessed as increase in […] expression at 1 to 2 uM after 4 days by Western blot analysis; assay type: functional, cell-based; conditions: dose 1-2 µM, time 4.0 day
SW1990 [18] = experiment: Inhibition of homologous recombinant repair in human SW1990 cells assessed as reduction in c-Myc expression at 1 to 2 uM after 4 days by Western blot analysis; assay type: functional, cell-based; conditions: dose 1-2 µM, time 4.0 day
SW1990 [19] = experiment: Induction of autophagy in human SW1990 cells assessed as increase in pULK1 expression at 1 to 2 uM incubated for 4 days by immunofluorescence assay; assay type: functional, cell-based; conditions: dose 1-2 µM, time 4.0 day
SW1990 [20] = experiment: Induction of autophagy in human SW1990 cells assessed as increase in ATG5 expression at 1 to 2 uM incubated for 4 days by immunofluorescence assay; assay type: functional, cell-based; conditions: dose 1-2 µM, time 4.0 day
SW1990 [21] = experiment: Induction of autophagy in human SW1990 cells xenografted in BALB/c mouse assessed as increase in LC3B expression at 45 mg/kg, ip after 4 days by Western blot analysis; assay type: functional, organism-based; conditions: time 4.0 day
Mus musculus [22] = experiment: Toxicity in BALB/c mouse xenografted with human SW1990 cells assessed as effect on body weight at 15 mg/kg, ip administered for 28 consecutive days in presence of 45 mg/kg Olaparib; assay type: organism-based; conditions: in vivo, 672 h, time 28 day
Mus musculus [23] = experiment: Toxicity in BALB/c mouse xenografted with human SW1990 cells assessed as kidney damage at 15 mg/kg, ip administered for 28 consecutive days in presence of 45 mg/kg Olaparib; assay type: organism-based; conditions: in vivo, 672 h, time 28 day
Mus musculus [24] = experiment: Toxicity in BALB/c mouse xenografted with human SW1990 cells assessed as lung damage at 15 mg/kg, ip administered for 28 consecutive days in presence of 45 mg/kg Olaparib; assay type: organism-based; conditions: in vivo, 672 h, time 28 day
Mus musculus [25] = experiment: In vivo inhibition of PARP1 expression in human […] cells xenografted in BALB/c mouse assessed as reversal of Olaparib-induced PARP1 accumulation at 15 mg/kg, ip administered for 28 consecutive days in presence of 45 mg/kg Olaparib by immunohistochemical analysis; assay type: functional, organism-based; conditions: time 28.0 day
Mus musculus [26] = experiment: In vivo inhibition of BRD4 expression in human SW1900 cells xenografted in BALB/c mouse assessed as reversal of Olaparib-induced BRD4 accumulation at 15 mg/kg, ip administered for 28 consecutive days in presence of 45 mg/kg Olaparib by Q-PCR analysis; assay type: functional, organism-based; conditions: time 28.0 day
SW1990 [27] = experiment: Induction of cell cycle arrest in human SW1990 cells assessed as accumulation of cells at G0/G1 phase at 4 uM incubated for 4 days by propidium iodide staining based flow cytometry (reference value: 64.79%); assay type: functional; conditions: time 4 day
SW1990 [28] = experiment: Induction of cell cycle arrest in human SW1990 cells assessed as accumulation of cells at S phase at 4 uM incubated for 4 days by propidium iodide staining based flow cytometry (reference value: 29.32%); assay type: functional; conditions: time 4 day
SW1990 [29] = experiment: Induction of DNA damage in human SW1990 cells assessed as increase in gammaH2AX at 4 uM incubated for 4 days by immunofluorescence assay; assay type: functional, cell-based; conditions: time 4.0 day
SW1990 [30] = experiment: Induction of DNA damage in human SW1990 cells assessed as increase in gammaH2AX at 1 uM incubated for 4 days in presence of Olaparib by immunofluorescence assay; assay type: functional, cell-based; conditions: time 4.0 day
SW1990 [31] = experiment: Inhibition of homologous recombinant repair in human SW1990 cells assessed as reduction in Olaparib-induced BRCA1 expression at 1 uM after 4 days in presence of Olaparib by Q-PCR analysis; assay type: functional, cell-based; conditions: time 4.0 day
SW1990 [32] = experiment: Inhibition of homologous recombinant repair in human SW1990 cells assessed as reduction in BRCA1 expression at 4 uM after 4 days by Q-PCR analysis; assay type: functional, cell-based; conditions: time 4.0 day
SW1990 [33] = experiment: Inhibition of homologous recombinant repair in human SW1990 cells assessed as reduction in c-Myc expression at 4 uM after 4 days by Q-PCR analysis; assay type: functional, cell-based; conditions: time 4.0 day

## CC[C@@H]1C(=O)N(C)c2cnc(N(C)c3ccc(-c4nc5c(C(N)=O)cccc5[nH]4)cc3OC)nc2N1C1CCCC1
Mus musculus [1]
  inhibition: Active
[2]
  IC50: 381 nM
SW1990 [3]
  inhibition: Active
SW1990 [4]
  Activity: Active
Mus musculus [5]
  Activity: Active
Mus musculus [6]
  Activity: Active
SW1990 [7]
  Activity: 28.4%
SW1990 [8]
  Activity: 2.81%
SW1990 [9]
  Activity: 40.3%
Mus musculus [10]
  Activity: Active
SW1990 [11]
  Activity: Active
Mus musculus [12]
  Activity: Active
SW1990 [13]
  Activity: Active
SW1990 [14]
  Activity: Active
SW1990 [15]
  inhibition: Active
SW1990 [16]
  inhibition: Active
SW1990 [17]
  inhibition: Active
SW1990 [18]
  inhibition: Active
SW1990 [19]
  Activity: Active
SW1990 [20]
  Activity: Active
SW1990 [21]
  Activity: Active

## Cc1sc2c(c1C)C(c1ccc(Cl)cc1)=N[C@@H](CC(=O)OC(C)(C)C)c1nnc(C)n1-2
Mus musculus [22]
  Activity: Non-Toxic
Mus musculus [23]
  Activity: Non-Toxic
Mus musculus [24]
  Activity: Non-Toxic
Mus musculus [25]
  Activity: Active
Mus musculus [26]
  Activity: Active
SW1990 [27]
  Activity: 75.06%
SW1990 [28]
  Activity: 19.43%
SW1990 [29]
  Activity: Active
SW1990 [30]
  Activity: Active
SW1990 [31]
  inhibition: Active
SW1990 [32]
  inhibition: Active
SW1990 [33]
  inhibition: Active
